Assay results reported in PMC8443048 (PLoS Pathogens, 2021).

Target: T1, isocitrate lyase (ICL) (Brucella abortus, UniProt Q2YQA0)
T1 construct: gene BAB1_1631
Settings: covalent; adduct with Cys185; active site

T1 sequence (Q2YQA0 1-429): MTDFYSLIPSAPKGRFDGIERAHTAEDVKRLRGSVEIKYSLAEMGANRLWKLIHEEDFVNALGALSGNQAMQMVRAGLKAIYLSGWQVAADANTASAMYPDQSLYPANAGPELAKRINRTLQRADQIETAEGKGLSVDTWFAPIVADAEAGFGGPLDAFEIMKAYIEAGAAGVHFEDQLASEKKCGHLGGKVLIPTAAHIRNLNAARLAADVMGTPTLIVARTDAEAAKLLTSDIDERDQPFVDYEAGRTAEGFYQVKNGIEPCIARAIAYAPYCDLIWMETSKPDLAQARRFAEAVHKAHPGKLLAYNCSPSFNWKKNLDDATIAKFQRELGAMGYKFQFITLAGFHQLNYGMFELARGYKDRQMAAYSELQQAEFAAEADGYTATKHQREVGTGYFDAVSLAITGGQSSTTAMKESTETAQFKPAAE

C=C(CC(=O)O)C(=O)O [itaconate]
X-ray crystallography of the complex, 1.8 Å: unambiguously shows a covalent adduct between itaconate and Cys185 in B. abortus isocitrate lyase
